{"source": "patent US9120774B2", "about": "(University of Kansas, priority 2009, dated 2015)", "key": {"[1]": {"tested_on": "Hsp70 in primary cortical neurons", "test": "Hsp70 up-regulation in neuronal cells (immunoblot)", "format": "cell-based, rat", "protocol": "Inhibition of Hsp90 induces overexpression of both Hsp90 and Hsp70 through dissociation of Hsp90-HSF-1 complexes and subsequent translocation of HSF-1 to the nucleus. […] Thus, in this example, an immunoblot analysis of neuronal cells was performed for Hsp70.\nPrimary cortical neurons were prepared as described herein. Cells were incubated (37° C. in 5% CO2) with the indicated concentrations of GA or KU-1/A4 for 24 or 48 hours. Cells were washed three times with phosphate buffered saline (PBS), followed by addition of a cell lysis buffer (50 mM Tris-HCL, 150 mM NaCl, 5 mM EDTA, 5 mM EGTA, 1% NP40, 10% Glycerol, 1 mM Na3VO4, 10 mM sodium molybdate, 40 mM NaF, and 10 ul/ml of Calbiochem protease inhibitor cocktail III). Cells were collected by scraping the dishes and aspirating all contents. […] The membranes were probed with the indicated primary HSP70 antibody (1:500, Upstate Biotechnology) and immunoreactive proteins detected using the Lumiglo Western Blot Protein Detector Kit (KPL). The immunoblots were scanned using a Kodak Image Station 2000R to determine the pixel density of the bands and imported into Photoshop and analyzed as described in Zaidi et al., Oxidative inactivation of purified plasma membrane Ca2+-ATPase by hydrogen peroxide and protection by calmodulin, Biochem. 42 12001-12010 (2003). All blots were re-probed with antibodies to β-actin I-19R (Santa Cruz) as a loading control and the data are presented as the ratio of Hsp70 to actin in each lane. Cells from at least three separate cultures for each treatment condition were examined, and the significance of differences in the immunoreactivities of the bands observed under the various treatment conditions was assessed by Student's t-test for unpaired samples."}, "primary cortical neurons": {"tested_on": "primary cortical neurons", "test": "Toxicity of drug alone in neuronal cells (Live-Dead assay)", "format": "cell-based", "text": "More specifically, primary cortical neurons were recovered from embryonic day 18 rat brains as described previously (Michaelis et al., Immunological Localization And Kinetic Characterization Of A Na+/Ca2+Exchanger In Neuronal And Nonneuronal Cells, Brain Res. 661 104-116 (1994)). Briefly, about 10 to 16 brains were removed from fetuses delivered by cesarean section, and the cortices dissected out. The neurons were isolated and suspended in DMEM/F12 supplemented with 10% FBS and plated on sterile dishes or cover slips coated with 10 μg/ml poly-D-lysine and 5 μg/ml mouse laminin. After 24 hours, the serum-containing medium was removed, and neurons were maintained in Neurobasal medium (Gibco) with 2% B-27 supplements (Gibco). Cells were maintained in culture at 37° C. in 5% CO2 and 97% humidity for 7 to 8 eight days in vitro (DIV) before use. […] Stock solutions of Aβ were prepared in sterile water at a concentration of 1.3 mM and stored at −20° C. Aliquots of the stock solutions were diluted to 1 mM in sterile 50 mM Tris-HCl, pH 7.4, and incubated at 37° C. for 24 hours to promote oligomerization of the peptides prior to treatment of the neurons. The effects of KU-1/A4, GA, Aβ, or the indicated combinations on neuronal viability were determined by monitoring cell survival using the Live-Dead assay as previously described. […] Digital images from 6 fields per dish were captured, and the number of viable (green) and dead (red) cells counted. All experiments were conducted with duplicate dishes from at least two neuronal preparations for each treatment, with about 1,000 cells analyzed/treatment condition. The data are expressed as the fraction of viable cells calculated from the total number of neurons counted under each treatment condition. The significance of differences between cultures exposed to various treatment conditions was determined using Student's t-test."}, "[2]": {"tested_on": "androgen receptor in LAPC-4 prostate cancer cells", "test": "Western blot of androgen receptor in LAPC-4 cells", "format": "cell-based", "conditions": "LAPC-4 cells (wild type androgen receptor), 24 hours", "protocol": "FIG. 3 (top panel) is a western blot analysis of prostate cancer LNCaP cells treated with KU-1/A4. The bottom panel is a western blot analysis of prostate cancer LAPC-4 cells incubated with KU-1/A4. Actin was used as a control in both assays. […] Western blot analysis of the effects of KU-1/A4 on Hsp90 client proteins in prostate cancer LNCaP cells. Cells were treated with varying concentrations of KU-1/A4 for 24 hours and probed for the androgen receptor (“AR”), protein kinase […] (“AKT”), Hsp90, and actin.\nThe steroid hormone receptors are also dependent upon the Hsp90 protein folding machinery for activation and hormone binding. To determine whether KU-1/A4 had similar effects on the androgen receptor, KU-1/A4 was tested in both a mutated androgen receptor-dependent prostate cancer cell line (LNCaP) and a wild type androgen receptor prostate cancer cell line (LAPC-4). More specifically, the prostate cancer cells were grown in RPMI with 10% fetal calf serum in a standard fashion. Once the cells had reached near confluence, they were treated with vehicle (DMSO) or varying concentrations of KU-1/A4 ranging from 10 nm to 100 μM for 24 hours. Cells were harvested and cell lysates prepared. […] More specifically, Western Blot analysis protein concentrations in serum samples were determined by the Pierce BCA protein assay kit according to the manufacturer's protocol. […]"}, "P-glycoprotein (P-gp)": {"molecular_target": "P-glycoprotein (P-gp) (Bos taurus, UniProt A0A3Q1MB23)", "sequence (A0A3Q1MB23 1-1267)": "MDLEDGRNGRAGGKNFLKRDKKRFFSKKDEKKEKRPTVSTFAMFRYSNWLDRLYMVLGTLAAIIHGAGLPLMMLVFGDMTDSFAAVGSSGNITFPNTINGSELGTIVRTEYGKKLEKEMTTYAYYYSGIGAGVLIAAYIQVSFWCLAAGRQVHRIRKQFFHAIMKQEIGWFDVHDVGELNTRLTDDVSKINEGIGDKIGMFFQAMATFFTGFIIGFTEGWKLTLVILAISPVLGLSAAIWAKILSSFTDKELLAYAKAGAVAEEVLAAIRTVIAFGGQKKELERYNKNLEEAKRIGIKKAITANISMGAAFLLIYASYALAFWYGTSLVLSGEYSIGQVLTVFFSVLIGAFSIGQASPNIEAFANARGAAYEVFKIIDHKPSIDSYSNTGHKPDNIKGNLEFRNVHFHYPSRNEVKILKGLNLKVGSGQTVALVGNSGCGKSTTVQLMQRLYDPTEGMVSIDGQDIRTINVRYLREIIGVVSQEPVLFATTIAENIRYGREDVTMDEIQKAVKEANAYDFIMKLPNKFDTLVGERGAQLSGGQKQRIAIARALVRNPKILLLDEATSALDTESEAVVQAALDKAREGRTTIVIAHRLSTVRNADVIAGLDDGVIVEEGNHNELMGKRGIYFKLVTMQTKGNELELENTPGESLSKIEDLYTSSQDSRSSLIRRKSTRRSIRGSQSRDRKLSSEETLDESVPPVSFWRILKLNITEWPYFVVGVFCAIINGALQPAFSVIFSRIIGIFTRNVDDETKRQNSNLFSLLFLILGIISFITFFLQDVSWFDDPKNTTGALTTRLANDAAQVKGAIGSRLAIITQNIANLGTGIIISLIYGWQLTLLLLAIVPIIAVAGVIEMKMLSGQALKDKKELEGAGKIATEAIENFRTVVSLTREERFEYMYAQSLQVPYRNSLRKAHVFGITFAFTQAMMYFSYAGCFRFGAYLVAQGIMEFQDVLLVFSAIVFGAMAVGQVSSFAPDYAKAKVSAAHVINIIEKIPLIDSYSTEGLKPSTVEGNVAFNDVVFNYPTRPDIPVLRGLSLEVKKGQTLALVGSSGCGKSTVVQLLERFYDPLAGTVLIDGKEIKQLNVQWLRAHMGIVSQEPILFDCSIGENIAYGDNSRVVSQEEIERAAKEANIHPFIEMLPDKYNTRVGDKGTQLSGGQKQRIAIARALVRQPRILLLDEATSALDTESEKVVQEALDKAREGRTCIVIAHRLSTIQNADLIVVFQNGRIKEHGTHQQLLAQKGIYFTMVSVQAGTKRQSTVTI", "test": "Rhodamine 123 uptake assay in BMECs", "quoted_text": "Taxol (10 μM) was used as a positive p-glycoprotein substrate."}}, "data": [{"smiles": "CO[C@@H]1[C@@H](O)[C@@H](O)[C@H](Oc2ccc3cc(NC(C)=O)c(=O)oc3c2)OC1(C)C", "note": "[KU-1/A4, N-(7-((2R,3R,4S,5R)-3,4-dihydroxy-5-methoxy-6,6-dimethyl-tetrahydro-2H-pyran-2-yloxy)-2-oxo-2H-chromen-3-yl)acetamide]", "values": [{"measurement": "Hsp70 levels (ratio of Hsp70 to actin)", "setting": "[1]; 0.2 μM, 48 hours", "value": "significantly increased Hsp70 levels"}, {"measurement": "lowest concentration leading to increases in Hsp70 levels", "setting": "[1]; 48 hours, compared to DMSO controls", "value": 1, "unit": "nM"}, {"measurement": "Hsp70 levels", "setting": "[1]; higher concentrations (1 and 10 μM)", "value": "did not significantly increase Hsp70 levels"}, {"measurement": "neurotoxicity of compound alone", "setting": "primary cortical neurons; 100 nM (20× the EC50)", "value": "did not result in any observed neurotoxicity"}, {"measurement": "toxic effects in neuronal cells", "setting": "primary cortical neurons; 10 μM, 72 hours", "value": "no toxic effects"}, {"measurement": "toxicity of the drug alone to neurons", "setting": "primary cortical neurons; primary neurons, drug alone", "value": "no toxicity"}, {"measurement": "androgen receptor levels", "setting": "[2]", "value": "drastically reduced levels of the androgen receptor at lower concentrations"}, {"measurement": "P-gp substrate", "setting": "P-glycoprotein (P-gp)", "value": "not a substrate for P-gp"}, {"measurement": "rhodamine 123 uptake", "setting": "P-glycoprotein (P-gp); rhodamine 123 5 μM, Taxol 10 μM, KU-1/A4 up to 50 μM", "value": "no effect on uptake"}]}]}
